Assay results as given in PubChem BioAssay AID2060884 (Molecular Pharmacology Branch, DTP, NCI, 2025).

Test system: NCI-H929 complex spheroids, viability % test/control
Assay: Anticancer human tumor NCI-H929 cell line growth inhibition [RAS];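 note: compound exposure lasted seven days before viability was read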;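 for viability, T/C: 100% = DMSO vehicle control viability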
Conditions: for viability, T/C: stronger effect = lower value
Outline: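 Tumour cells grown as complex spheroids with HUVEC endothelial cells and mesenchymal stem cells, treated with RAS pathway inhibitor combinations. Each agent spans half-log steps from near clinical Cmax, or 10 microM where Cmax is unknown.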

SMILES: C=CC(=O)N1CCN(c2nc(OCC3CCCN3C)nc3c(F)c(-c4nc(N)cc(C)c4C(F)(F)F)c(Cl)cc23)C(C)C1 (centres undefined)
- viability, T/C (compound 0.00316 µM): 102% [middle of 12 runs]
- viability, T/C (compound 0.01 µM, compound 0.0316 µM): 103%
- viability, T/C (compound 0.01 µM, compound 0.1 µM): 105%
- viability, T/C (compound 0.01 µM, compound 0.316 µM): 101%
- viability, T/C (compound 0.01 µM, compound 1 µM): 106%
- viability, T/C (compound 0.01 µM): 101% [middle of 13 runs]
- viability, T/C (compound 0.0316 µM, compound 0.00316 µM): 94.3%
- viability, T/C (compound 0.0316 µM, compound 0.01 µM): 101%
- viability, T/C (compound 0.0316 µM, compound 0.1 µM): 101%
- viability, T/C (compound 0.0316 µM, compound 0.316 µM): 108%
- viability, T/C (compound 0.0316 µM, compound 1 µM): 109%
- viability, T/C (compound 0.0316 µM): 103% [middle of 13 runs]
- viability, T/C (compound 0.1 µM, compound 0.00316 µM): 98.2%
- viability, T/C (compound 0.1 µM, compound 0.01 µM): 104%
- viability, T/C (compound 0.1 µM, compound 0.0316 µM): 99.5%
- viability, T/C (compound 0.1 µM, compound 0.316 µM): 109%
- viability, T/C (compound 0.1 µM, compound 1 µM): 111%
- viability, T/C (compound 0.1 µM): 100% [middle of 12 runs]
- viability, T/C (compound 0.316 µM, compound 0.00316 µM): 102%
- viability, T/C (compound 0.316 µM, compound 0.01 µM): 105%
- viability, T/C (compound 0.316 µM, compound 0.0316 µM): 106%
- viability, T/C (compound 0.316 µM, compound 0.1 µM): 102%
- viability, T/C (compound 0.316 µM, compound 1 µM): 113%
- viability, T/C (compound 0.316 µM): 100% [middle of 13 runs]
- viability, T/C (compound 1 µM, compound 0.00316 µM): 107%
- viability, T/C (compound 1 µM, compound 0.01 µM): 104%
- viability, T/C (compound 1 µM, compound 0.0316 µM): 105%
- viability, T/C (compound 1 µM, compound 0.1 µM): 109%
- viability, T/C (compound 1 µM, compound 0.316 µM): 110%
- viability, T/C (compound 1 µM): 104% [middle of 13 runs]
- IC50 (compound alone, run of 09/09/2024): > 1000 nM
- IC50 (curve of compound): > 1000 nM

SMILES: CC(=O)OC12COC1CC(O)C1(C)C(=O)C(O)C3=C(C)C(OC(=O)C(O)C(NC(=O)OC(C)(C)C)c4ccccc4)CC(O)(C(OC(=O)c4ccccc4)C21)C3(C)C (centres undefined) + C#Cc1c(F)ccc2cc(O)cc(-c3ncc4c(N5CC6CCC(C5)N6)nc(OCC56CCCN5CC(F)C6)nc4c3F)c12
- IC50 (curve of first compound, second compound 0.0316 µM): < 31.6 nM
- IC50 (curve of first compound, second compound 0.1 µM): < 31.6 nM
- IC50 (curve of first compound, second compound 0.316 µM): < 31.6 nM
- IC50 (curve of first compound, second compound 1 µM): < 31.6 nM
- IC50 (curve of first compound, second compound 3.16 µM): < 31.6 nM
- IC50 (curve of first compound, second compound 10 µM): < 31.6 nM
- viability, T/C (second compound 0.0316 µM, first compound 0.0316 µM): 0.76%
- viability, T/C (second compound 0.0316 µM, first compound 0.1 µM): 1.3%
- viability, T/C (second compound 0.0316 µM, first compound 0.316 µM): 1.24%
- viability, T/C (second compound 0.0316 µM, first compound 1 µM): 1.01%
- viability, T/C (second compound 0.0316 µM, first compound 3.16 µM): 1.67%
- viability, T/C (second compound 0.0316 µM, first compound 10 µM): 0.89%
- viability, T/C (second compound 0.1 µM, first compound 0.0316 µM): 1.76%
- viability, T/C (second compound 0.1 µM, first compound 0.1 µM): 0.93%
- viability, T/C (second compound 0.1 µM, first compound 0.316 µM): 1.5%
- viability, T/C (second compound 0.1 µM, first compound 1 µM): 1.51%
- viability, T/C (second compound 0.1 µM, first compound 3.16 µM): 1.27%
- viability, T/C (second compound 0.1 µM, first compound 10 µM): 0.89%
- viability, T/C (second compound 0.316 µM, first compound 0.0316 µM): 1.1%
- viability, T/C (second compound 0.316 µM, first compound 0.1 µM): 0.78%
- viability, T/C (second compound 0.316 µM, first compound 0.316 µM): 1.16%
- viability, T/C (second compound 0.316 µM, first compound 1 µM): 1.88%
- viability, T/C (second compound 0.316 µM, first compound 3.16 µM): 1.5%
- viability, T/C (second compound 0.316 µM, first compound 10 µM): 0.79%
- viability, T/C (second compound 1 µM, first compound 0.0316 µM): 1.5%
- viability, T/C (second compound 1 µM, first compound 0.1 µM): 0.8%
- viability, T/C (second compound 1 µM, first compound 0.316 µM): 1.05%
- viability, T/C (second compound 1 µM, first compound 1 µM): 2.04%
- viability, T/C (second compound 1 µM, first compound 3.16 µM): 1.33%
- viability, T/C (second compound 1 µM, first compound 10 µM): 0.88%
- viability, T/C (second compound 3.16 µM, first compound 0.0316 µM): 1.91%
- viability, T/C (second compound 3.16 µM, first compound 0.1 µM): 0.99%
- viability, T/C (second compound 3.16 µM, first compound 0.316 µM): 1.37%
- viability, T/C (second compound 3.16 µM, first compound 1 µM): 0.71%
- viability, T/C (second compound 3.16 µM, first compound 3.16 µM): 1.08%
- viability, T/C (second compound 3.16 µM, first compound 10 µM): 0.76%
- viability, T/C (second compound 10 µM, first compound 0.0316 µM): 1.78%
- viability, T/C (second compound 10 µM, first compound 0.1 µM): 0.88%
- viability, T/C (second compound 10 µM, first compound 0.316 µM): 1.86%
- viability, T/C (second compound 10 µM, first compound 1 µM): 1.55%
- viability, T/C (second compound 10 µM, first compound 3.16 µM): 1.23%
- viability, T/C (second compound 10 µM, first compound 10 µM): 0.77%
